Reference: publication PMC9596378, “Discovery and molecular basis of subtype-selective cyclophilin inhibitors” (Nature Chemical Biology, 2022)
Like-named read-outs stand apart in the source and are kept apart here.

Columns and labels:
[1] = target: T1, CypA (Homo sapiens, UniProt P62937); assay: Chymotrypsin coupled prolyl-isomerase assay; type: biochemical; details: wild-type CypA; read-out: Wild-Type Cyclophilin Prolyl Isomerase Inhibition IC50 Values, CypA
T1 construct: PPIA (UniProtKB Entry P62937: residues 1–165); made in house; host or cells: E. coli BL21(DE3)
T1 sequence (P62937 whole entry, the tested form may be a part): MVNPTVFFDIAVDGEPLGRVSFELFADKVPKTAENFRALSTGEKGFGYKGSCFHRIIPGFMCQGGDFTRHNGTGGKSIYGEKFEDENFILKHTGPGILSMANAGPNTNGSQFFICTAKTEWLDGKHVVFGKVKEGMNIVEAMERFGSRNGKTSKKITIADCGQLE
Protocol: (§1) Adapting a previously described protocol, with an Agilent Bravo Velocity 11 with a 384ST head, 90 µL assay buffer (25 mM HEPES pH 7.3, 100 mM NaCl, 0.01% Triton X-100) containing 5.28 nM cyclophilin was added into a flat, clear-bottom, black 384-well plate pre-chilled in a Corning CoolBox at 2–3 °C. Five microliters of compound pre-dissolved in 5% DMSO/assay buffer was then added to appropriate wells and incubated at 2–3 °C for 5 min. Five microliters of 0.5 mM α-chymotrypsin from bovine pancreas (Type II, lyophilized powder, Millipore-Sigma) in 20% 1 mM HCl/Assay Buffer was then added to each well and incubated at 2–3 °C for 5 min. The plate was then quickly transferred to a FLIPR Tetra High-Throughput Cellular Screening System (Molecular Devices). Using the internal liquid handling system of the FLIPR, 1 µL 0.5 mM Suc-AAPF-AMC (Chymotrypsin Substrate II, Millipore-Sigma) dissolved in 0.55 M LiCl/2,2,2-trifluoroethanol was added to each well, which was then mixed for 5 s, followed by immediate fluorescence measurements every 1 s for 330 s using a 360–380 nm excitation LED module and a 400–460 nm emission filter. Final concentrations of the plate include 5 nM cyclophilin, 0.25% DMSO, 25 µM α-chymotrypsin, 5 µM Suc-AAPF-AMC. Raw fluorescence data was analyzed by non-linear regression analysis with Prism v.9 by fitting one-phase association curves to each well. […] Rate constants calculated for each well (s^−1) were then normalized to substrate only (no prolyl-isomerase) and enzyme + substrate only controls. IC50 values were calculated as the value at which 50% inhibition was achieved on the non-linear regression fitted curve of each compound.

[2] = target: T2, CypH (Homo sapiens, UniProt O43447); assay: Chymotrypsin coupled prolyl-isomerase assay; type: biochemical
T2 construct: PPIH (UniProtKB Entry O43447: residues 1–177); His6 with TEV site (2BT vector leader) (N); made in house; host or cells: E. coli BL21(DE3)
T2 sequence (O43447 whole entry, the tested form may be a part): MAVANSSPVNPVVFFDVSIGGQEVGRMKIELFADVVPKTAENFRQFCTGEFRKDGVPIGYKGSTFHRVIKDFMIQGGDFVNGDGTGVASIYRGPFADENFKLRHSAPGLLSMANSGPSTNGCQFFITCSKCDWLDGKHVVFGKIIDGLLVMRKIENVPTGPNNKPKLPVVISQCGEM
Protocol: as §1

[3] = target: T3, CypC (Homo sapiens, UniProt P45877); assay: Chymotrypsin coupled prolyl-isomerase assay; type: biochemical
T3 construct: PPIC (UniProtKB Entry P45877: residues 24–212); host or cells: E. coli BL21(DE3)
T3 sequence (P45877 24-212): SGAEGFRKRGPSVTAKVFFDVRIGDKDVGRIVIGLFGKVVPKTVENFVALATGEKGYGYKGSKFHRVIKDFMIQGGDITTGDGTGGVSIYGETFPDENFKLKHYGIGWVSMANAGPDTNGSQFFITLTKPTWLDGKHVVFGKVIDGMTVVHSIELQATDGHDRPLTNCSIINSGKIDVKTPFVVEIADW
Protocol: as §1

[4] = target: T4, CypG (Homo sapiens, UniProt Q13427); assay: Chymotrypsin coupled prolyl-isomerase assay; type: biochemical; details: wild-type CypG; read-out: Wild-Type Cyclophilin Prolyl Isomerase Inhibition IC50 Values, CypG
T4 construct: PPIG (UniProtKB Entry Q13427: residues 1–179); His6 with thrombin site (pET28a LIC leader) (N); host or cells: E. coli BL21(DE3)
T4 sequence (Q13427 1-179): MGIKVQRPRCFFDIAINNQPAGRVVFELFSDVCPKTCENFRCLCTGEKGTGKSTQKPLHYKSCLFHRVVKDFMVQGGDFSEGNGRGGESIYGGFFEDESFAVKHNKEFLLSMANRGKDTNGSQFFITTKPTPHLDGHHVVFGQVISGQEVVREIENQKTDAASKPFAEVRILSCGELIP
Protocol: as §1

[5] = target: T5, CypE (Homo sapiens, UniProt Q9UNP9); assay: Chymotrypsin coupled prolyl-isomerase assay; type: biochemical; details: wild-type CypE; read-out: Wild-Type Cyclophilin Prolyl Isomerase Inhibition IC50 Values, CypE
T5 construct: PPIE (UniProtKB Entry Q9UNP9: residues 131–301); host or cells: E. coli BL21(DE3)
T5 sequence (Q9UNP9 131-301): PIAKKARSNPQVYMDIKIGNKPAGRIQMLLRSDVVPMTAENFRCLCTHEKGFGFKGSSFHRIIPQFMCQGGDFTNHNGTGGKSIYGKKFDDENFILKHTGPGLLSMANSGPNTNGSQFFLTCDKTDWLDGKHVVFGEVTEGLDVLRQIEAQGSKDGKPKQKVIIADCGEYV
Protocol: as §1

[6] = target: T6, CypB (Homo sapiens, UniProt P23284); assay: biochemical; details: wild-type CypB; read-out: Wild-Type Cyclophilin Prolyl Isomerase Inhibition IC50 Values, CypB
T6 construct: PPIB (UniProtKB Entry P23284: residues 34–216); His6 with TEV site (2BT vector leader) (N); made in house; host or cells: E. coli BL21(DE3)
T6 sequence (P23284 34-216): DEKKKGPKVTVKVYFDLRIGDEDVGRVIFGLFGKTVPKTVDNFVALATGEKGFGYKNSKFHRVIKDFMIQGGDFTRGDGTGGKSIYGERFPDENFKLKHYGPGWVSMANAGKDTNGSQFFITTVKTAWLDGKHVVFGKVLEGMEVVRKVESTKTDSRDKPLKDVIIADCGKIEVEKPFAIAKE
Protocol: as §1

[7] = target: Cyp40 (Homo sapiens, UniProt Q08752); assay: Chymotrypsin coupled prolyl-isomerase assay
Cyp40, sequence (Q08752 1-183): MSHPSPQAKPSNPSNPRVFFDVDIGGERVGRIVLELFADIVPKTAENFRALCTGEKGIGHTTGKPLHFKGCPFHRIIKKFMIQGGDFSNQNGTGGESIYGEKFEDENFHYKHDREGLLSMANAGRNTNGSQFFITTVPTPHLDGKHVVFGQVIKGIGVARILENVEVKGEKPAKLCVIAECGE
Protocol: as §1

[8] = target: T7, NKTR (Homo sapiens, UniProt P30414); assay: Chymotrypsin coupled prolyl-isomerase assay; type: biochemical
T7 construct: NKTR (UniProtKB Entry P30414: residues 7–179); host or cells: E. coli BL21(DE3)
T7 sequence (P30414 7-179): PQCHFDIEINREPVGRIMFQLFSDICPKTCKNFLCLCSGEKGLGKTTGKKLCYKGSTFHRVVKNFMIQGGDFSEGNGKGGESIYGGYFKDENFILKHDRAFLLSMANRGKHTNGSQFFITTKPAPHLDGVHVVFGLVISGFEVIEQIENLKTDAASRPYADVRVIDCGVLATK

[9] = target: T8, PPIL1 (Homo sapiens, UniProt Q9Y3C6); assay: Chymotrypsin coupled prolyl-isomerase assay; type: biochemical; details: wild-type PPIL1; read-out: Wild-Type Cyclophilin Prolyl Isomerase Inhibition IC50 Values, PPIL1
T8 construct: PPIL1 (UniProtKB Entry Q9Y3C6: residues 1–166); made in house; host or cells: E. coli BL21(DE3)
T8 sequence (Q9Y3C6 1-166): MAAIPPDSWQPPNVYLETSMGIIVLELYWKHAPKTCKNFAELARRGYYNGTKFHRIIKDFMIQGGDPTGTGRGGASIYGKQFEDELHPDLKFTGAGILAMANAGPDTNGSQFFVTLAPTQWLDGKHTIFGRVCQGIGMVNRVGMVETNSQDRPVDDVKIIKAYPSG
Protocol: Adapting a previously described protocol[51], with an Agilent Bravo Velocity 11 with a 384ST head, 90 µL assay buffer (25 mM HEPES pH 7.3, 100 mM NaCl, 0.01% Triton X-100) containing 5.28 nM cyclophilin was added into a flat, clear-bottom, black 384-well plate pre-chilled in a Corning CoolBox at 2–3 °C. Five microliters of compound pre-dissolved in 5% DMSO/assay buffer was then added to appropriate wells and incubated at 2–3 °C for 5 min. Five microliters of 0.5 mM α-chymotrypsin from bovine pancreas (Type II, lyophilized powder, Millipore-Sigma) in 20% 1 mM HCl/Assay Buffer was then added to each well and incubated at 2–3 °C for 5 min. […] Using the internal liquid handling system of the FLIPR, 1 µL 0.5 mM Suc-AAPF-AMC (Chymotrypsin Substrate II, Millipore-Sigma) dissolved in 0.55 M LiCl/2,2,2-trifluoroethanol was added to each well, which was then mixed for 5 s, followed by immediate fluorescence measurements every 1 s for 330 s using a 360–380 nm excitation LED module and a 400–460 nm emission filter. Final concentrations of the plate include 5 nM cyclophilin, 0.25% DMSO, 25 µM α-chymotrypsin, 5 µM Suc-AAPF-AMC. Raw fluorescence data was analyzed by non-linear regression analysis with Prism v.9 by fitting one-phase association curves to each well. Analyses were halted after the calculated maximum fluorescent value owing to observed fluorescent bleaching during the sustained fluorescent plateau. Rate constants calculated for each well (s^−1) were then normalized to substrate only (no prolyl-isomerase) and enzyme + substrate only controls. IC50 values were calculated as the value at which 50% inhibition was achieved on the non-linear regression fitted curve of each compound.

[10] = target: T9, PPWD1 (Homo sapiens, UniProt Q96BP3); assay: Chymotrypsin coupled prolyl-isomerase assay; type: biochemical
T9 construct: PPWD1 (UniProtKB Entry Q96BP3: residues 473–646); host or cells: E. coli BL21(DE3)
T9 sequence (Q96BP3 473-646): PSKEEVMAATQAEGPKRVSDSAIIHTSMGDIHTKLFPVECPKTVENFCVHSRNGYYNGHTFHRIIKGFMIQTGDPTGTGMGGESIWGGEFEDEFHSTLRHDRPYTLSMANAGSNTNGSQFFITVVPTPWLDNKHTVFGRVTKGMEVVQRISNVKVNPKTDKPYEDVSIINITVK
Protocol: Five microliters of compound pre-dissolved in 5% DMSO/assay buffer was then added to appropriate wells and incubated at 2–3 °C for 5 min. Five microliters of 0.5 mM α-chymotrypsin from bovine pancreas (Type II, lyophilized powder, Millipore-Sigma) in 20% 1 mM HCl/Assay Buffer was then added to each well and incubated at 2–3 °C for 5 min. The plate was then quickly transferred to a FLIPR Tetra High-Throughput Cellular Screening System (Molecular Devices). Using the internal liquid handling system of the FLIPR, 1 µL 0.5 mM Suc-AAPF-AMC (Chymotrypsin Substrate II, Millipore-Sigma) dissolved in 0.55 M LiCl/2,2,2-trifluoroethanol was added to each well, which was then mixed for 5 s, followed by immediate fluorescence measurements every 1 s for 330 s using a 360–380 nm excitation LED module and a 400–460 nm emission filter. […] Raw fluorescence data was analyzed by non-linear regression analysis with Prism v.9 by fitting one-phase association curves to each well. Analyses were halted after the calculated maximum fluorescent value owing to observed fluorescent bleaching during the sustained fluorescent plateau. Rate constants calculated for each well (s^−1) were then normalized to substrate only (no prolyl-isomerase) and enzyme + substrate only controls.

[11] = target: CypD (Homo sapiens, UniProt P30405); assay: Chymotrypsin coupled prolyl-isomerase assay
CypD, sequence (P30405 45-207): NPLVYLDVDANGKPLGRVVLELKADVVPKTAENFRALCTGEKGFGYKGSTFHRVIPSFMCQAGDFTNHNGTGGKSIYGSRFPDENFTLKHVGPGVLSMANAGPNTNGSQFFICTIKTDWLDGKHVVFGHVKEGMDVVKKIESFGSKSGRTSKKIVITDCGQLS
Protocol: as §1, with “Five” for “Adapting a previously described protocol, with an Agilent Bravo Velocity 11 with a 384ST head, 90 µL assay buffer (25 mM HEPES pH 7.3, 100 mM NaCl, 0.01% Triton X-100) containing 5.28 nM cyclophilin was added into a flat, clear-bottom, black 384-well plate pre-chilled in a Corning CoolBox at 2–3 °C. Five”, “Final concentrations of the plate include 5 nM cyclophilin, 0.25% DMSO, 25 µM α-chymotrypsin, 5 µM Suc-AAPF-AMC.” left out, “controls.” for “controls. IC50 values were calculated as the value at which 50% inhibition was achieved on the non-linear regression fitted curve of each compound.”

[12] = system: HeLa cells; assay: Fluorescence microscopy of Cy5-conjugated compounds; type: cell-based, human
Protocol: Cells were seeded into 96-well, black, clear-bottom, TC-treated plates, in DMEM supplemented with 10% FBS 24 h prior at a density where wells were ~80% confluent at the time of the experiment. Medium was removed and cells were then stained with 50 µL mixture containing Cy5-labeled compound (6 µM) in Kreb’s ringer solution HEPES buffered pH 7.2 (KRB), for 1 h at 37 °C. Then, 50 µL Hoechst 33342 (8 µM) and Mitotracker Green FM (0.1 µM) in KRB was added directly to wells containing cells and incubated for 15 min at 37 °C. Medium was removed and cells were washed twice with 100 µL KRB. Cells were then kept adherent to the wells in 100 µL KRB for imaging. Fluorescence microscopy was conducted on an Opera Phenix Plus High-Content Screening System, using Alexa 488, Alexa 647, and Hoescht 33342 channels. Images were analyzed using Harmony v.4.9.

[13] = wild-type CypH, read-out: Wild-Type Cyclophilin Prolyl Isomerase Inhibition IC50 Values, CypH
[14] = wild-type CypC, read-out: Wild-Type Cyclophilin Prolyl Isomerase Inhibition IC50 Values, CypC
[15] = Wild-Type Cyclophilin Prolyl Isomerase Inhibition IC50 Values, Cyp40, wild-type Cyp40
[16] = wild-type NKTR, read-out: Wild-Type Cyclophilin Prolyl Isomerase Inhibition IC50 Values, NKTR
[17] = prolyl-isomerase inhibition, 5 nM cyclophilin, read-out: IC50 PPWD1
[18] = wild-type PPWD1, read-out: Wild-Type Cyclophilin Prolyl Isomerase Inhibition IC50 Values, PPWD1
[19] = Wild-Type Cyclophilin Prolyl Isomerase Inhibition IC50 Values, CypD, wild-type CypD
[20] = prolyl-isomerase inhibition, 5 nM cyclophilin, read-out: IC50 CypH
[21] = read-out: Wild-Type Cyclophilin Prolyl Isomerase Inhibition IC50 Values, Cyp40, wild-type Cyp40
[22] = read-out: IC50 CypD, prolyl-isomerase inhibition, 5 nM cyclophilin, Suc-AAPF-AMC, mean±s.e.m. of 3 technical replicates (B52, B53, C3A wild-type: mean±s.d. of 4 independent replicates)

SMILES	IC50 [1]	IC50 [2, 13]	IC50 [3, 14]	IC50 [4]	IC50 [5]	IC50 [6]	IC50 [7, 15]	IC50 [8, 16]	IC50 [9]	IC50 [10, 18]	IC50 [11, 22]	further results
NCCOCCNC(=O)C1CCNC(=O)C=CC(=O)N2CCCC(C2)C(=O)NC(Cc2ccc(C(=O)c3ccccc3)cc2)C(=O)NCc2ccccc2CC(=O)N1 (stereo not shown) [Compound A14]	19000 nM	> 100000 nM	9000 nM	> 100000 nM	13000 nM	2700 nM	3000 nM	> 100000 nM	10000 nM	100000 nM	–	IC50 [10, 17]: ~100000 nM; IC50 [11, 19]: 3800 nM
CC12CCCN(C1)C(=O)C=CC(=O)NCCC(C(=O)NCCOCCN)NC(=O)Cc1ccccc1CNC(=O)C(Cc1ccco1)NC2=O (stereo not shown) [Compound A25]	16000 nM	24000 nM	6500 nM	1900 nM	14000 nM	900 nM	2600 nM	8000 nM	11000 nM	40000 nM	–	IC50 [11, 19]: 3600 nM
NCCOCCNC(=O)C1CCNC(=O)C=CC(=O)N2CCCC(Cc3ccccc3)(C2)C(=O)NC(Cc2ccco2)C(=O)NCc2ccccc2CC(=O)N1 (stereo not shown) [Compound A26]	1100 nM	2700 nM	530 nM	840 nM	800 nM	100 nM	400 nM	4200 nM	600 nM	3400 nM	–	IC50 [11]: 200 nM; increase of CypD potency relative to JOMBt [11]: 85 fold
CC(=O)c1ccc(-c2ccc(C[C@@H]3NC(=O)[C@]4(Cc5ccccc5)CCCN(C4)C(=O)/C=C/C(=O)NCC[C@@H](C(=O)NCCOCCN)NC(=O)Cc4ccccc4CNC3=O)cc2)cc1 [Compound B15]	400 nM	80000 nM	380 nM	1800 nM	150 nM	80 nM	–	4900 nM	100 nM	880 nM	38 nM	IC50 [2, 20]: ~80000 nM; IC50 [7, 21]: 60 nM; preference for CypD over CypC and Cyp40 [11]: 2- to 20 fold
NCCOCCNC(=O)[C@@H]1CCNC(=O)/C=C/C(=O)N2CCC[C@](Cc3ccccc3)(C2)C(=O)N[C@@H](Cc2ccc(-c3ccc(C(=O)O)cc3)cc2)C(=O)NCc2ccccc2CC(=O)N1 [Compound B20]	3100 nM	> 100000 nM	60000 nM	> 100000 nM	1600 nM	2000 nM	–	> 100000 nM	1400 nM	> 100000 nM	300 nM	IC50 ([3]; prolyl-isomerase inhibition, 5 nM cyclophilin, read-out: IC50 CypC): ~60000 nM; IC50 [7]: 2600 nM; preference for CypD over CypC and Cyp40 [11]: at least ninefold
NCCOCCNC(=O)[C@@H]1CCNC(=O)/C=C/C(=O)N2CCC[C@](Cc3ccccc3)(C2)C(=O)N[C@@H](Cc2ccc(-c3ccc(CC(=O)O)cc3)cc2)C(=O)NCc2ccccc2CC(=O)N1 [Compound B22]	700 nM	100000 nM	14000 nM	10000 nM	130 nM	230 nM	–	> 100000 nM	600 nM	50000 nM	40 nM	IC50 [2, 20]: ~100000 nM; IC50 [7, 21]: 1000 nM; IC50 [10, 17]: ~50000 nM
NCCOCCNC(=O)[C@@H]1CCNC(=O)/C=C/C(=O)N2CCC[C@](Cc3ccccc3)(C2)C(=O)N[C@@H](Cc2ccc(-c3ccc(/C=C/C(=O)O)cc3)cc2)C(=O)NCc2ccccc2CC(=O)N1 [Compound B24]	10 nM	> 50000 nM	1500 nM	11000 nM	4 nM	5 nM	–	13000 nM	20 nM	6000 nM	1.9 nM	IC50 [7]: 150 nM; IC50 ([8]; prolyl-isomerase inhibition, 5 nM cyclophilin, read-out: IC50 NKTR): ~13000 nM
CC(=O)NCCNC(=O)CCCCCN1\C(=C/C=C/C=C/C2=[N+](C)c3ccccc3C2(C)C)C(C)(C)c2ccccc21 [Cy5-enAc, reference compound]	–	–	–	–	–	–	–	–	–	–	> 2000 nM	plasma membrane permeability / mitochondrial localization (in words) [12]: good mitochondrial localization
